Laboratory results from patent US7425557B2, “Inhibitors of glycogen synthase kinase 3” (Novartis Vaccines and Diagnostics, Inc., priority 1998, dated 2008).
pIC50: −log10 of the molar value.

Target: human GSK3β (Homo sapiens, UniProt P49841)
Experiment: Screening for GSK3 inhibitory activity using a cell-free assay
Assay type: biochemical
Conditions: read-out: IC50 with respect to GSK3
Experimental: This amount represents the amount of radiolabeled phosphate incorporated into the peptide substrate.
The captured radiolabeled peptide substrate can be quantitated in a scintillation counter using known methods. […] If an inhibitor is present during the reaction, GSK3 activity will be reduced, and a smaller quantity of radiolabeled phosphate will thus be incorporated into the peptide substrate.
Pyrimidine and pyridine compounds of the present invention were dissolved in DMSO, then tested for inhibition of human GSK3β (the nucleotide sequence for human GSK3β appears in GenBank under Accession No. L33801).
While the reaction was proceeding, streptavidin-coated Labsystems “Combiplate 8” capture plates (Labsystems, Helsinki, Finland) were blocked by incubating them with 300 μl/well of PBS containing 1% bovine serum albumin for at least one hour at room temperature. The blocking solution was then removed by aspiration, and the capture plates were filled with 100 ul/well of stopping reagent (50 μM ATP/20 mM EDTA).
When the three hour enzyme reaction was finished, triplicate 100 μl aliquots of each reaction mix were transferred to three wells containing stopping solution, one well on each of the three capture plates, and the well contents were mixed well. […] Finally, 200 μl of Microscint-20 scintillation fluid was added to each well of the plate. The plates were coated with plate sealers, then left on a shaker for 30 minutes. Each capture plate was counted in a Packard TopCount scintillation counter (Meridian, Conn.) and the results were plotted as a function of compound concentration.

Chain of human GSK3β (P49841 whole entry): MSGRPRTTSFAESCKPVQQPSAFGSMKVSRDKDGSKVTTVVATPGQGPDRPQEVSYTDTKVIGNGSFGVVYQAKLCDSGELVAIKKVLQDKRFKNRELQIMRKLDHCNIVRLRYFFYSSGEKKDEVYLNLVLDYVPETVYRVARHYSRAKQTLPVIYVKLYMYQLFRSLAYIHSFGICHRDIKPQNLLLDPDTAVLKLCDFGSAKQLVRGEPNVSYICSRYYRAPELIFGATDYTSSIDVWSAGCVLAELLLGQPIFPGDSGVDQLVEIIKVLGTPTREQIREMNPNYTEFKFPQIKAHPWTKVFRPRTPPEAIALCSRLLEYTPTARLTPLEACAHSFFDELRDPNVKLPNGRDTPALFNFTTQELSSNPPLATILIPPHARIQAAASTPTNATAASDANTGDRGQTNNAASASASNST

pIC50	SMILES
≥ 6.00	N#Cc1ccc(-c2nc(NCCNc3ccc([N+](=O)[O-])cn3)ncc2NCc2ccccc2)cc1 [4-[2-({2-[(5-nitro(2-pyridyl))amino]ethyl}amino)-5-[benzylamino]pyrimidin-4-yl]benzenecarbonitrile]
≥ 5.00	O=C(NCc1ccccc1)c1ccc(-c2ccnc(NCCc3ccccn3)n2)cc1 [N-benzyl(4-{2-[(2-(2-pyridyl)ethyl)amino]pyrimidin-4-yl}phenyl)carboxamide]
≥ 5.00	COc1cc(CNc2nccc(-c3ccc(C(N)=O)cc3)n2)cc(OC)c1OC [4-(2-{[(3,4,5-trimethoxyphenyl)methyl]amino}pyrimidin-4-yl)benzamide]
≥ 5.00	NC(=O)c1ccc(-c2ccnc(NCc3ccc(-c4ccc(F)cc4)cc3)n2)cc1 [4-[2-({[4-(4-fluorophenyl)phenyl]methyl}amino)pyrimidin-4-yl]benzamide]
≥ 6.00	CN1CCN(c2cnc(NCCNc3ccc([N+](=O)[O-])c(N)n3)nc2-c2ccc(Cl)cc2Cl)CC1 [{2-[(6-amino-5-nitro(2-pyridyl))amino]ethyl}[4-(2,4-dichlorophenyl)-5-(4-methylpiperazinyl)-pyrimidin-2-yl]amine]
≥ 5.00	O=C(NCc1ccc(Br)cc1)c1ccc(-c2ccnc(NCCNc3ccc([N+](=O)[O-])cn3)n2)cc1 [N-[(4-bromophenyl)methyl]{4-[2-({2-[(5-nitro(2-pyridyl))-amino]ethyl}amino)pyrimidin-4-yl]phenyl}carboxamide]
≥ 6.00	N#Cc1ccc(NCCNc2ccc(-n3ccnc3)c(-c3ccc(Cl)cc3Cl)n2)nc1 [6-[(2-{[6-(2,4-dichlorophenyl)-5-imidazolyl-2-pyridyl]amino}ethyl)amino]pyridine-3-carbonitrile]
≥ 6.00	N#Cc1ccc(-c2nc(NCCNc3ccc([N+](=O)[O-])cn3)ncc2C(=O)NCc2ccccc2)cc1 [[4-(4-cyanophenyl)-2-({2-[(5-nitro(2-pyridyl))amino]ethyl}amino)pyrimidin-5-yl]-N-benzylcarboxamide]
≥ 6.00	NC(=O)c1ccc(-c2ccnc(NCCNc3ccc([N+](=O)[O-])cn3)n2)cc1 [4-[2-({2-[(5-nitro-2-pyridyl)amino]ethyl}amino)-pyrimidin-4-yl]benzamide]
≥ 6.00	CC(C)(C)OC(=O)c1cnc(NCCNc2ccc([N+](=O)[O-])cn2)nc1-c1ccc(C#N)cc1 [tert-butyl 4-(4-cyanophenyl)-2-({2-[(5-nitro(2-pyridyl))amino]-ethyl}amino)pyrimidine-5-carboxylate]
≥ 5.00	COc1ccc(-c2nc(NCCNc3ccc([N+](=O)[O-])cn3)nc(-c3ccc([N+](=O)[O-])cc3)c2C(=O)O)cc1 [4-(4-methoxyphenyl)-2-({2-[(5-nitro(2-pyridyl))amino]ethyl}-amino)-6-(4-nitrophenyl)pyrimidine-5-carboxylic acid]
≥ 6.00	O=[N+]([O-])c1ccc(NCCNc2ncc(-n3cccn3)c(-c3ccc(Cl)cc3Cl)n2)nc1
≥ 5.00	CCOC(=O)c1c(CC)nc(NCCNc2ncccn2)nc1-c1ccc(C(N)=O)cc1 [ethyl 4-(4-carbamoylphenyl)-6-ethyl-2-{[2-(pyrimidin-2-ylamino)ethyl]amino}pyrimidine-5-carboxylate]
≥ 6.00	Nc1nc(NCCNc2ncc(N3C(=O)CCC3=O)c(-c3ccc(Cl)cc3Cl)n2)ccc1[N+](=O)[O-] [1-[2-({2-[(6-amino-5-nitro(2-pyridyl))amino]ethyl}amino)-4-(2,4-dichlorophenyl)pyrimidin-5-yl]-pyrrolidine-2,5-dione]
≥ 5.00	NS(=O)(=O)c1ccc(-c2ccnc(NCCNc3ccc([N+](=O)[O-])cn3)n2)cc1 [4-[2-({2-[(5-nitro-2-pyridyl)amino]ethyl}amino)pyrimidin-4-yl]benzenesulfonamide]
≥ 5.00	CCc1ccc(-c2nc(N(C)CCNc3ccc(C#N)cn3)ccc2N2CCN(C)CC2=O)cc1 [6-({2-[[6-(4-ethylphenyl)-5-(4-methyl-2-oxo-1-piperazinyl)-2-pyridinyl](methyl)amino]ethyl}amino)nicotinonitrile]
≥ 5.00	CCOC(=O)c1c(CC)nc(NCCNc2ccc(C(F)(F)F)cn2)nc1-c1ccc(C(N)=O)cc1 [ethyl 4-(4-carbamoylphenyl)-6-ethyl-2-[(2-{[5-(trifluoromethyl)(2-pyridyl)]amino}-ethyl)amino]pyrimidine-5-carboxylate]
≥ 6.00	O=[N+]([O-])c1ccc(NCCNc2ncc(-n3nnc4ccccc43)c(-c3ccc(Cl)cc3Cl)n2)nc1 [[5-benzotriazolyl-4-(2,4-dichlorophenyl)pyrimidin-2-yl]{2-[(5-nitro(2-pyridyl))amino]ethyl}amine]
≥ 5.00	N#Cc1cnc(NCCNc2ccc([N+](=O)[O-])cn2)nc1-c1ccc(Cl)c(Cl)c1 [4-(3,4-dichlorophenyl)-2-({2-[(5-nitro(2-pyridyl))amino]ethyl}amino)pyrimidine-5-carbonitrile]

pIC50	SMILES
≥ 5.00	O=[N+]([O-])c1ccc(NCCNc2ccc([N+](=O)[O-])c(NCc3ccc(Cl)cc3Cl)n2)nc1 [(6-{[(2,4-dichlorophenyl)methyl]amino}-5-nitro(2-pyridyl)){2-[(5-nitro(2-pyridyl))amino]ethyl}amine]
≥ 6.00	N#Cc1ccc(-c2nc(NCCNc3ccc([N+](=O)[O-])cn3)nc(-c3cccc([N+](=O)[O-])c3)c2C(=O)O)cc1 [4-(4-cyanophenyl)-2-({2-[(5-nitro(2-pyridyl))amino]ethyl}amino)-6-(3-nitrophenyl)pyrimidine-5-carboxylic acid]
≥ 6.00	N#Cc1ccc(NCCNc2nccc(-c3ccc(C(=O)NCc4cccc(Br)c4)cc3)n2)nc1 [N-[(3-bromophenyl)methyl]{4-[2-({2-[(5-cyano(2-pyridyl))amino]ethyl}-amino)pyrimidin-4-yl]phenyl}carboxamide]
≥ 5.00	NC(=O)c1ccc(-c2ccnc(NCCCOc3ccc4ccccc4c3)n2)cc1 [4-{2-[(3-(2-naphthyloxy)propyl)amino]pyrimidin-4-yl}benzamide]
≥ 6.00	CN(C)CCOC(=O)c1cnc(NCCNc2ccc([N+](=O)[O-])cn2)nc1-c1ccc(C#N)cc1
≥ 6.00	NC(=O)c1ccc(-c2ccnc(NCCCOc3cccc(C(F)(F)F)c3)n2)cc1 [4-[2-({3-[3-(trifluoromethyl)phenoxy]propyl}amino)pyrimidin-4-yl]benzamide]
≥ 6.00	N#Cc1ccc(NCCNc2ncc(-c3ncc[nH]3)c(-c3ccc(Cl)cc3Cl)n2)nc1 [6-[(2-{[4-(2,4-dichlorophenyl)-5-imidazol-2-ylpyrimidin-2-yl]amino}ethyl)amino]pyridine-3-carbonitrile]
≥ 6.00	CN(C)CCN(CCNc1ccc([N+](=O)[O-])cn1)c1ncc(-n2ccnc2)c(-c2ccc(Cl)cc2Cl)n1 [[4-(2,4-dichlorophenyl)-5-imidazolylpyrimidin-2-yl][2-(dimethylamino)ethyl]{2-[(5-nitro(2-pyridyl))amino]ethyl}amine]
≥ 5.00	COc1cccc(CNC(=O)c2ccc(-c3ccnc(NCCNc4ccc([N+](=O)[O-])cn4)n3)cc2)c1OC [N-[(2,3-dimethoxyphenyl)methyl]{4-[2-({2-[(5-nitro(2-pyridyl))amino]ethyl}amino)pyrimidin-4-yl]phenyl}carboxamide]
≥ 6.00	CCOC(=O)c1c(-c2ccc(C(N)=O)cc2)nc(NCCNc2ccc([N+](=O)[O-])cn2)nc1-c1ccc([N+](=O)[O-])cc1 [ethyl 4-(4-carbamoylphenyl)-2-({2-[(5-nitro(2-pyridyl))amino]ethyl}-amino)-6-(4-nitrophenyl)pyrimidine-5-carboxylate]
≥ 5.00	O=C(NC1CC1c1ccccc1)c1ccc(-c2ccnc(NCCNc3ccc([N+](=O)[O-])cn3)n2)cc1 (stereo not shown) [{4-[2-({2-[(5-nitro(2-pyridyl))amino]ethyl}amino)pyrimidin-4-yl]phenyl}-N-(2-phenylcyclopropyl)-carboxamide]
≥ 5.00	O=C(O)c1c(-c2ccccc2)nc(NCCNc2ccc([N+](=O)[O-])cn2)nc1-c1ccccc1F [6-(2-fluorophenyl)-2-({2-[(5-nitro(2-pyridyl))amino]ethyl}amino)-4-phenyl-pyrimidine-5-carboxylic acid]
≥ 6.00	NC(=O)c1ccc(-c2ccnc(NCCNc3ncccn3)n2)cc1 [4-(2-{[2-(pyrimidin-2-ylamino)ethyl]amino}pyrimidin-4-yl)benzamide]
≥ 6.00	O=C(O)c1ccc(-c2nc(NCCNc3ccc([N+](=O)[O-])cn3)nc(-c3ccc([N+](=O)[O-])cc3)c2C(=O)O)cc1 [4-(4-carboxyphenyl)-2-({2-[(5-nitro(2-pyridyl))amino]-ethyl}amino)-6-(4-nitrophenyl)pyrimidine-5-carboxylic acid]
≥ 6.00	COc1cccc(CCNc2nccc(-c3ccc(C(N)=O)cc3)n2)c1OC [4-(2-{[2-(2,3-dimethoxyphenyl)ethyl]amino}pyrimidin-4-yl)benzamide]
≥ 5.00	N#Cc1ccc(CNc2nccc(-c3ccc(C(N)=O)cc3)n2)cc1 [4-(2-{[(4-cyanophenyl)methyl]amino}pyrimidin-4-yl)benzamide]
≥ 5.00	COc1cccc(CCNc2nccc(-c3ccc(C(=O)NCc4cccc(Br)c4)cc3)n2)c1 [N-[(3-bromophenyl)methyl][4-(2-{[2-(3-methoxyphenyl)ethyl]amino}pyrimidin-4-yl)phenyl]carboxamide]
≥ 5.00	NC(=O)c1ccc(-c2ccnc(NCCCOc3ccccc3)n2)cc1 [4-{2-[(3-phenoxypropyl)amino]pyrimidin-4-yl}benzamide]
